Results published in patent US11485733B2, “Azaquinoline derivatives” (BAYER ANIMAL HEALTH GMBH, priority 2017, dated 2022).

Columns and labels:
D. immitis Slo-1 = D. immitis Slo-1 (Dirofilaria immitis, UniProt I0DFK5); assay: D. immitis Slo-1, action at a recombinant CHO cell line (membrane potential, FLIPR); format: cell-based
[1] = tested on: Nippostrongylus brasiliensis; assay: Nippostrongylus brasiliensis (NIPOBR) adult worms, acetylcholine esterase readout; details: read-out: activity (reduction of AChE compared to negative control); for inhibition at 1 µg/mL: at 1 μg/ml (1 ppm); for inhibition at 10 µg/mL: at 10 μg/ml (10 ppm)
Protocol: In Vitro Assay 3: Nippostrongylus brasiliensis (NIPOBR)
Adult Nippostrongylus brasiliensis were washed with saline buffer containing 100 U/ml penicillin, 0.1 mg/ml streptomycin and 2.5 μg/ml amphotericin B. Test compounds were dissolved in DMSO and worms were incubated in medium in a final concentration of 10 μg/ml (10 ppm) respectively 1 μg/ml (1 ppm). An aliquot of the medium was used to determine the acetylcholine esterase activity in comparison to a negative control. The principle of measuring acetylcholine esterase as readout for anthelmintic activity was described in Rapson et al (1986) and Rapson et al (1987).

[2] = tested on: Dirofilaria immitis microfilariae; assay: Dirofilaria immitis microfilariae (DIROIM L1) motility; details: 72 h, read-out: EC50 (reduction of motility)
Dirofilaria immitis = Dirofilaria immitis (DIROIM L4) larval motility; details: 72 h, read-out: EC50 (reduction of motility)
Cooperia curticei = Cooperia curticei larval mortality; details: 120 h, read-out: activity (percentage of larval mortality)
Protocol: In Vitro Assay 6: Cooperia curticei
Solvent: Dimethyl Sulfoxide
Approximately 40 nematode larvae (Cooperia curticei) are transferred into a test tube containing the compound solution.
After 5 days percentage of larval mortality is recorded. 100% efficacy means all larvae are killed; 0% efficacy means no larvae are killed.

Haemonchus contortus = Haemonchus contortus larval mortality; details: 120 h, read-out: activity (percentage of larval mortality)
Protocol: In Vitro Assay 7: Haemonchus contortus
Solvent: Dimethyl Sulfoxide
Approximately 40 larvae of the red stomach worm (Haemonchus contortus) are transferred into a test tube containing compound solution.
After 5 days the percentage of larval mortality is recorded. 100% efficacy means all larvae are killed, 0% efficacy means no larvae are killed.

[3] = tested on: Litomosoides sigmodontis third-stage larvae; assay: Litomosoides sigmodontis (LTMOSI L3) larval motility; details: 72 h, read-out: EC50 (reduction of motility)
Protocol: In Vitro Assay 6: Litomosoides sigmodontis (LTMOSI L3)
10 Litomosoides sigmodontis third-stage larvae, which were freshly isolated from the pleural cavity of an infected rodent, were added to wells of a microtitre plate containing a nutrient medium and the test compound in DMSO. Compounds were tested in concentration-response assay in duplicate. Larvae exposed to DMSO and no test compounds were used as negative controls. Larvae were evaluated after 72 h of incubation with the compound. Efficacy was determined as the reduction of motility in comparison to the negative control. Based on the evaluation of a wide concentration range, concentration-response curves as well as EC50-values were calculated.

C. elegans Slo-1a = C. elegans Slo-1a (Caenorhabditis elegans, UniProt Q95V25); details: pE50 (negative decadic logarithm of EC50), CHO cells expressing C. elegans Slo-1a; voltage sensitive dye, 70 mM KCl
Sequence of C. elegans Slo-1a (Q95V25 whole entry): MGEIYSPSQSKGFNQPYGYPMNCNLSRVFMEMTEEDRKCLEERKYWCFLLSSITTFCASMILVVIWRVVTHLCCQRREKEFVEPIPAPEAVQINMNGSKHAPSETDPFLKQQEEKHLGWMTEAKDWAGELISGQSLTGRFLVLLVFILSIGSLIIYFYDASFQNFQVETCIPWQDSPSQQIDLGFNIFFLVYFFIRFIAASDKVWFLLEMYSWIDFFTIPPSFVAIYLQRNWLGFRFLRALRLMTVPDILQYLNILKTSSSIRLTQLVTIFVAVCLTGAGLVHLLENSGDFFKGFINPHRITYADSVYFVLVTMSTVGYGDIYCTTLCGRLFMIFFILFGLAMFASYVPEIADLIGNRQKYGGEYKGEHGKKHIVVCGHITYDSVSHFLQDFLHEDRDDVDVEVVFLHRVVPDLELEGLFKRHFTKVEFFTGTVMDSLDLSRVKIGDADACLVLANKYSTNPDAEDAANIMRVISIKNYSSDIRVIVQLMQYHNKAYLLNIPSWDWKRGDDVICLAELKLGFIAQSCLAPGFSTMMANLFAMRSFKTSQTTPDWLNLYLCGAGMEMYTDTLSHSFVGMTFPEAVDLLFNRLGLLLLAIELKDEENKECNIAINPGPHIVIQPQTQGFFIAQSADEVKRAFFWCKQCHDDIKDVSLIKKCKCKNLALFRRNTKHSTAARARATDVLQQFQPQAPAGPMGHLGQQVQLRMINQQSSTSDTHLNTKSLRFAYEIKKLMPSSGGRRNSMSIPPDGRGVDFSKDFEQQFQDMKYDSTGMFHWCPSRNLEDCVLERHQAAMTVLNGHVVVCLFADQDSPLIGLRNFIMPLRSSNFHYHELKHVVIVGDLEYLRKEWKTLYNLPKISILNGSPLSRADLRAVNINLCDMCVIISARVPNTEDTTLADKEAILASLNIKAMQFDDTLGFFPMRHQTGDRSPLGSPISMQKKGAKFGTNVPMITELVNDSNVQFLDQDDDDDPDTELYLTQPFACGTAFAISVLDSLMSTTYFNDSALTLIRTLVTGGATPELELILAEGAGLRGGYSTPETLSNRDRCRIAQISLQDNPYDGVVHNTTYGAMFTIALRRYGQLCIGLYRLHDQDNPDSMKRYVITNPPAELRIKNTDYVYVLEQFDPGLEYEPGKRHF

Sequence of D. immitis Slo-1 (I0DFK5 1-1119): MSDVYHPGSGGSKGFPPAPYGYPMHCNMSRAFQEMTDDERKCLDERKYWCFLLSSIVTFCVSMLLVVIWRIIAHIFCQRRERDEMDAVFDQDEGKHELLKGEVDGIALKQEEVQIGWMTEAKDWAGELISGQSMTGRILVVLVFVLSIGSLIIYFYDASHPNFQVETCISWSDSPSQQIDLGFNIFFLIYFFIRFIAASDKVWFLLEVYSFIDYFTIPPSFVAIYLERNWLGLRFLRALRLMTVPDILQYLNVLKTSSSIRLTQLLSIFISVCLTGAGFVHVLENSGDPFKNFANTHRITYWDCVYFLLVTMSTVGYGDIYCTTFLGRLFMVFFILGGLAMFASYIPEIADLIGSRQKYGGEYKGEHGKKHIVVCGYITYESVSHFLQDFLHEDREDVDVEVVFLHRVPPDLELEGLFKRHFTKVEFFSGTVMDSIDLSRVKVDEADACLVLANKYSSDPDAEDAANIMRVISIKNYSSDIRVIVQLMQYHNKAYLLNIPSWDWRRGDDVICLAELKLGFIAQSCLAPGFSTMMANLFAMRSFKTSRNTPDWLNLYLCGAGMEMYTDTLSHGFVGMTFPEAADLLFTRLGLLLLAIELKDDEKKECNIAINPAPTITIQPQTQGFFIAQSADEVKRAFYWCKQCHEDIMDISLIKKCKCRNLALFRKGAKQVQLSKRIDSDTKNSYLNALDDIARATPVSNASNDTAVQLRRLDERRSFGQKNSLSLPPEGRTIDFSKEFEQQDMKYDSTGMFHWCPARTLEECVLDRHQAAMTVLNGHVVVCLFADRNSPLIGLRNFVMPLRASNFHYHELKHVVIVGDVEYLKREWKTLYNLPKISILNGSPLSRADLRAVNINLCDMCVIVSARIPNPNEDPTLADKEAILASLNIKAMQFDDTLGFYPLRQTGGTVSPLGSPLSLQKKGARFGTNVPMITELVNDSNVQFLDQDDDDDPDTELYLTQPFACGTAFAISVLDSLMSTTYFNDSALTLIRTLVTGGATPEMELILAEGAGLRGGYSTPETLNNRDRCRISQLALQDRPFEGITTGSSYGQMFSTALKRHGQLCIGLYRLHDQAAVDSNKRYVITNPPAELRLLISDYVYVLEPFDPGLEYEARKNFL

## CN(C)c1c(C(=O)N[C@H]2CCOc3ccccc32)cnc2c(-c3cc(Cl)cc(Cl)c3)nccc12 [Example T1-1, 8-(3,5-Dichlorophenyl)-N-[(4S)-3,4-dihydro-2H-chromen-4-yl]-4-(dimethylamino)-1,7-naphthyridine-3-carboxamide]
D. immitis Slo-1
  EC50: 31.6 to 316 nM
[1]
  inhibition at 1 µg/mL: > 80%
[2]
  EC50: < 0.1 µg/mL
Dirofilaria immitis
  EC50: < 0.1 µg/mL
Cooperia curticei
  mortality at 4 ppm: 100%
  mortality at 20 ppm: 100%
Haemonchus contortus
  mortality at 20 ppm: 100%
[3]
  EC50: < 0.1 µg/mL
C. elegans Slo-1a
  EC50: 3.16 to 31.6 nM

## CN(C)c1c(C(=O)N[C@H]2CCOc3ccccc32)cnc2c(-c3cccc(Cl)c3Cl)nccc12 [Example T1-2, 8-(2,3-Dichlorophenyl)-N-[(4S)-3,4-dihydro-2H-chromen-4-yl]-4-(dimethylamino)-1,7-naphthyridine-3-carboxamide]
D. immitis Slo-1
  EC50: 31.6 to 316 nM
[1]
  inhibition at 1 µg/mL: > 80%
  inhibition at 10 µg/mL: > 80%
[2]
  EC50: < 0.1 µg/mL
Dirofilaria immitis
  EC50: < 0.1 µg/mL
Cooperia curticei
  mortality at 4 ppm: 100%
  mortality at 20 ppm: 100%
Haemonchus contortus
  mortality at 20 ppm: 90%
C. elegans Slo-1a
  EC50: 3.16 to 31.6 nM

## O=C(N[C@H]1CCOc2ccccc21)c1cnc2c(-c3cc(Cl)cc(Cl)c3)nccc2c1N1CCOCC1 [Example T1-3, 8-(3,5-Dichlorophenyl)-N-[(4S)-3,4-dihydro-2H-chromen-4-yl]-4-(morpholin-4-yl)-1,7-naphthyridine-3-carboxamide]
D. immitis Slo-1
  EC50: 31.6 to 316 nM
[1]
  inhibition at 1 µg/mL: > 80%
  inhibition at 10 µg/mL: > 80%
[2]
  EC50: < 0.1 µg/mL
Dirofilaria immitis
  EC50: < 0.1 µg/mL
Cooperia curticei
  mortality at 4 ppm: 100%
  mortality at 20 ppm: 100%
Haemonchus contortus
  mortality at 20 ppm: 100%
C. elegans Slo-1a
  EC50: 3.16 to 31.6 nM

## O=C(N[C@H]1CCOc2ccccc21)c1cnc2c(-c3cccc(Cl)c3Cl)nccc2c1N1CCOCC1 [Example T1-4, 8-(2,3-Dichlorophenyl)-N-[(4S)-3,4-dihydro-2H-chromen-4-yl]-4-(morpholin-4-yl)-1,7-naphthyridine-3-carboxamide]
D. immitis Slo-1
  EC50: 31.6 to 316 nM
[1]
  inhibition at 1 µg/mL: > 80%
  inhibition at 10 µg/mL: > 80%
[2]
  EC50: < 0.1 µg/mL
Dirofilaria immitis
  EC50: < 0.1 µg/mL
Cooperia curticei
  mortality at 4 ppm: 100%
[3]
  EC50: < 0.1 µg/mL
C. elegans Slo-1a
  EC50: 3.16 to 31.6 nM

## O=C(N[C@H]1CCOc2ccccc21)c1cnc2c(-c3cc(Cl)cc(Cl)c3Cl)nccc2c1N1CCOCC1 [Example T1-6, N-[(4S)-3,4-dihydro-2H-chromen-4-yl]-4-(morpholin-4-yl)-8-(2,3,5-trichlorophenyl)-1,7-naphthyridine-3-carboxamide]
D. immitis Slo-1
  EC50: 3.16 to 31.6 nM
[1]
  inhibition at 1 µg/mL: > 80%
[2]
  EC50: < 0.1 µg/mL
Dirofilaria immitis
  EC50: < 0.1 µg/mL
Cooperia curticei
  mortality at 4 ppm: 100%
  mortality at 20 ppm: 100%
Haemonchus contortus
  mortality at 20 ppm: 100%
C. elegans Slo-1a
  EC50: < 3.16 nM

## CN(C)c1c(C(=O)N[C@H]2CCOc3ccccc32)cnc2c(-c3cccc(Cl)c3Cl)ncc(F)c12 [Example T1-10, 8-(2,3-dichlorophenyl)-N-[(4S)-3,4-dihydro-2H-1-benzopyran-4-yl]-4-(dimethylamino)-5-fluoro-1,7-naphthyridine-3-carboxamide]
D. immitis Slo-1
  EC50: 31.6 to 316 nM
[1]
  inhibition at 10 µg/mL: > 80%
[2]
  EC50: < 0.1 µg/mL
Dirofilaria immitis
  EC50: < 0.1 µg/mL
[3]
  EC50: < 0.1 µg/mL
C. elegans Slo-1a
  EC50: 3.16 to 31.6 nM

## CN(C)c1c(C(=O)N[C@H]2CCOc3ccccc32)cnc2c(-c3cc(F)cc(F)c3F)ncc(F)c12 [Example T1-12, N-[(4S)-3,4-dihydro-2H-1-benzopyran-4-yl]-4-(dimethylamino)-5-fluoro-8-(2,3,5-trifluorophenyl)-1,7-naphthyridine-3-carboxamide]
D. immitis Slo-1
  EC50: 31.6 to 316 nM
[1]
  inhibition at 1 µg/mL: > 80%
  inhibition at 10 µg/mL: > 80%
[2]
  EC50: < 0.1 µg/mL
Dirofilaria immitis
  EC50: < 0.1 µg/mL
[3]
  EC50: < 0.1 µg/mL

## CN(C)c1c(C(=O)N[C@H]2CCOc3ccccc32)cnc2c(-c3cc(Cl)cc(Cl)c3)cncc12 [Example T2-1, 8-(3,5-Dichlorophenyl)-N-[(4S)-3,4-dihydro-2H-chromen-4-yl]-4-(dimethylamino)-1,6-naphthyridine-3-carboxamide]
D. immitis Slo-1
  EC50: 31.6 to 316 nM
[1]
  inhibition at 1 µg/mL: > 80%
[2]
  EC50: < 0.1 µg/mL
Dirofilaria immitis
  EC50: < 0.1 µg/mL
Cooperia curticei
  mortality at 4 ppm: 100%
  mortality at 20 ppm: 100%
Haemonchus contortus
  mortality at 20 ppm: 100%
C. elegans Slo-1a
  EC50: 3.16 to 31.6 nM

## O=C(N[C@H]1CCOc2ccccc21)c1cnc2c(-c3cccc(Cl)c3Cl)cncc2c1N1CCOCC1 [Example T2-3, 8-(2,3-Dichlorophenyl)-N-[(4S)-3,4-dihydro-2H-chromen-4-yl]-4-(morpholin-4-yl)-1,6-naphthyridine-3-carboxamide]
D. immitis Slo-1
  EC50: 3.16 to 31.6 nM
[1]
  inhibition at 1 µg/mL: > 80%
[2]
  EC50: < 0.1 µg/mL
Dirofilaria immitis
  EC50: < 0.1 µg/mL
Cooperia curticei
  mortality at 4 ppm: 80%
  mortality at 20 ppm: 100%
Haemonchus contortus
  mortality at 20 ppm: 90%
C. elegans Slo-1a
  EC50: 3.16 to 31.6 nM

## COc1ncc(-c2cc(Cl)cc(Cl)c2)c2ncc(C(=O)N[C@H]3CCOc4ccccc43)c(N(C)C)c12 [Example T2-5, 8-(3,5-dichlorophenyl)-N-[(4S)-3,4-dihydro-2H-1-benzopyran-4-yl]-4-(dimethylamino)-5-methoxy-1,6-naphthyridine-3-carboxamide]
D. immitis Slo-1
  EC50: 31.6 to 316 nM
[1]
  inhibition at 1 µg/mL: > 80%
  inhibition at 10 µg/mL: > 80%
[2]
  EC50: < 0.1 µg/mL
Dirofilaria immitis
  EC50: < 0.1 µg/mL
[3]
  EC50: < 0.1 µg/mL

## COc1ncc(-c2cccc(Cl)c2Cl)c2ncc(C(=O)N[C@H]3CCOc4ccccc43)c(N(C)C)c12 [Example T2-12, 8-(2,3-dichlorophenyl)-N-[(4S)-3,4-dihydro-2H-1-benzopyran-4-yl]-4-(dimethylamino)-5-methoxy-1,6-naphthyridine-3-carboxamide]
D. immitis Slo-1
  EC50: 31.6 to 316 nM
[1]
  inhibition at 1 µg/mL: > 80%
  inhibition at 10 µg/mL: > 80%
[2]
  EC50: < 0.1 µg/mL
Dirofilaria immitis
  EC50: < 0.1 µg/mL
[3]
  EC50: < 0.1 µg/mL
C. elegans Slo-1a
  EC50: < 3.16 nM

## O=C(N[C@H]1CCOc2ccccc21)c1cnc2c(-c3cccc(Cl)c3Cl)ccnc2c1N1CCOCC1 [Example T3-4, 8-(2,3-Dichlorophenyl)-N-[(4S)-3,4-dihydro-2H-chromen-4-yl]-4-(morpholin-4-yl)-1,5-naphthyridine-3-carboxamide]
D. immitis Slo-1
  EC50: 3.16 to 31.6 nM
[1]
  inhibition at 1 µg/mL: > 80%
[2]
  EC50: < 0.1 µg/mL
Dirofilaria immitis
  EC50: < 0.1 µg/mL
Cooperia curticei
  mortality at 4 ppm: 100%
  mortality at 20 ppm: 100%
Haemonchus contortus
  mortality at 20 ppm: 100%
C. elegans Slo-1a
  EC50: < 3.16 nM

## COc1cnc2c(N(C)C)c(C(=O)N[C@H]3CCOc4ccccc43)cnc2c1-c1cc(F)cc(F)c1F [Example T3-15, N-[(4S)-3,4-dihydro-2H-1-benzopyran-4-yl]-4-(dimethylamino)-7-methoxy-8-(2,3,5-trifluorophenyl)-1,5-naphthyridine-3-carboxamide]
D. immitis Slo-1
  EC50: 3.16 to 31.6 nM
[1]
  inhibition at 1 µg/mL: > 80%
  inhibition at 10 µg/mL: > 80%
[2]
  EC50: < 0.1 µg/mL
Dirofilaria immitis
  EC50: < 0.1 µg/mL
[3]
  EC50: < 0.1 µg/mL

## CN(C)c1c(C(=O)N[C@H]2CCOc3ccccc32)cnc2c(-c3cccc(Cl)c3Cl)c(F)cnc12 [Example T3-17, 8-(2,3-dichlorophenyl)-N-[(4S)-3,4-dihydro-2H-1-benzopyran-4-yl]-4-(dimethylamino)-7-fluoro-1,5-naphthyridine-3-carboxamide]
D. immitis Slo-1
  EC50: 3.16 to 31.6 nM
[1]
  inhibition at 1 µg/mL: > 80%
  inhibition at 10 µg/mL: > 80%
[2]
  EC50: < 0.1 µg/mL
Dirofilaria immitis
  EC50: < 0.1 µg/mL
[3]
  EC50: < 0.1 µg/mL

## O=C(N[C@H]1CCOc2ccccc21)c1cnc2c(-c3cc(F)cc(F)c3F)c(F)cnc2c1N1CCOCC1 [Example T3-20, N-[(4S)-3,4-dihydro-2H-1-benzopyran-4-yl]-7-fluoro-4-(morpholin-4-yl)-8-(2,3,5-trifluorophenyl)-1,5-naphthyridine-3-carboxamide]
D. immitis Slo-1
  EC50: 3.16 to 31.6 nM
[1]
  inhibition at 1 µg/mL: > 80%
  inhibition at 10 µg/mL: > 80%
[2]
  EC50: < 0.1 µg/mL
Dirofilaria immitis
  EC50: < 0.1 µg/mL
[3]
  EC50: < 0.1 µg/mL

## COc1c(C(=O)N[C@H]2CCOc3ccccc32)nnc2c(-c3cc(Cl)cc(Cl)c3)cccc12 [Example T5-5, 8-(3,5-Dichlorophenyl)-N-[(4S)-3,4-dihydro-2H-chromen-4-yl]-4-methoxycinnoline-3-carboxamide]
D. immitis Slo-1
  EC50: 31.6 to 316 nM
[1]
  inhibition at 1 µg/mL: > 80%
[2]
  EC50: < 0.1 µg/mL
Dirofilaria immitis
  EC50: < 0.1 µg/mL
Cooperia curticei
  mortality at 4 ppm: 80%
  mortality at 20 ppm: 80%
Haemonchus contortus
  mortality at 20 ppm: 80%
C. elegans Slo-1a
  EC50: 3.16 to 31.6 nM

## CN(C)c1c(C(=O)N[C@H]2CCOc3ccccc32)cnc2c(-c3cccc(Cl)c3Cl)cnnc12 [Example T6-1, 4-(2,3-Dichlorophenyl)-N-[(4S)-3,4-dihydro-2H-chromen-4-yl]-8-(dimethylamino)pyrido[3,2-c]pyridazine-7-carboxamide]
[1]
  inhibition at 1 µg/mL: > 80%
[2]
  EC50: < 0.1 µg/mL
Dirofilaria immitis
  EC50: < 0.1 µg/mL
Cooperia curticei
  mortality at 20 ppm: 90%
Haemonchus contortus
  mortality at 20 ppm: 100%
C. elegans Slo-1a
  EC50: 3.16 to 31.6 nM
